# “Also recorded” adds a separate entry of the source. Where no end group is shown, it is not given here.
# Test system: CNS stem cells
# Conditions: cited from earlier work
row,Compound,"neuronal differentiation, % of the cells [%]"
1,platelet-derived growth factor [PDGF],90

# Test system: NG-108-15 Cells
# Assay type: cell-based
# Conditions: not given
Compound,Effect,Onset Time [s],inhibit repetitive firing,effect on the AP
N=C(N)NC(=O)c1nc(Cl)c(N)nc1N [amiloride],L-type Ca^2+ channel,<60,amiloride*,
C=C(C=O)C[C@@H]1C[C@H](O)[C@]2(C)O[C@@H]3C[C@@H]4O[C@@H]5C[C@]6(C)O[C@]7(C)CC[C@@H]8O[C@@H]9C[C@]%10(C)O[C@@H]%11C(C)=CC(=O)O[C@H]%11C[C@H]%10O[C@H]9C[C@@H](C)[C@H]8O[C@H]7C[C@H]6O[C@H]5C/C=C\[C@H]4O[C@H]3C[C@H]2O1 [brevetoxin],Na^+ channel,<60,brevetoxin*,
C[N+](C)(C)CCOC(N)=O [carbachol],muscarinic receptor,<60,carbachol*,
COC(=O)C1=C(C)NC(C)=C(C(=O)OC)C1c1ccccc1[N+](=O)[O-] [nifedipine],,,nifedipine*,
C[C@@H]1O[C@@H](O[C@H]2C[C@@H](O)[C@]3(CO)[C@H]4[C@H](O)C[C@]5(C)[C@@H](C6=CC(=O)OC6)CC[C@]5(O)[C@@H]4CC[C@]3(O)C2)[C@H](O)[C@H](O)[C@H]1O [ouabain],Na^+—Ca^2+ pump; also recorded: inhibition,<60,ouabain*,
C=C[C@H]1C[N@@]2CC[C@H]1C[C@H]2[C@H](O)c1ccnc2ccc(OC)cc12 [quinine],non-specific K^+ channel,<60,quinine*,
NC1=N[C@H](O)[C@H]2[C@H]3O[C@]4(O)O[C@@H]([C@@H](O)[C@@]2(N1)[C@@H]4O)[C@]3(O)CO [tetrodotoxin],Na^+ channel,<60,tetrodotoxin*,affected the AP
COc1ccc(CCN(C)CCCC(C#N)(c2ccc(OC)c(OC)c2)C(C)C)cc1OC (stereo not drawn) [verapamil],L-type Ca^2+ channel,<60,verapamil*,
Charybdotoxin,Kca “BK”-type channel,<60,Charybdotoxin*,

# Test system: CA1 region of hippocampal slices
# Conditions: cited from earlier work
row,Compound,effect on synaptic transmission
1,"O=CC[C@@H](O)[C@H](O)[C@H](O)CO [2-DG, 2-deoxy-D-glucose]",reversibly suppresses synaptic transmission

# Test system: CA1 pyramidal cells in hippocampal slices
# Conditions: cited from earlier work
row,Compound,changes in the action potential
1,C[N+](C)(C)CCOC(N)=O [carbachol],several reversible changes in the action potential

# Test system: hippocampal interneurons
# Conditions: cited from earlier work
row,Compound,effect on action potential frequency / currents
1,"CCK-8S (DYMGWMDF; not fully specified; UniProt P06307 96-103, looked up)",increased action potential frequency or generated inward currents

# — patent US7734426B2 (priority 1999, dated 2010)
